Assay: xn = mol fraction of the nth substance listed
Settings: 100 kPa, Liquid; for viscosity: Falling or rolling sphere viscometry; for mass density: Vibrating tube method

CCCCCCCO [heptan-1-ol] + CC1CCCCC1
Settings | mass density [kg/m3] | viscosity [mPa·s]
293.15 K, x2 = 0.1004 | 817.38 | 5.541
293.15 K, x2 = 0.1991 | 812.34 | 4.404
293.15 K, x2 = 0.3134 | 806.43 | 3.336
293.15 K, x2 = 0.399 | 801.91 | 2.649
293.15 K, x2 = 0.4994 | 796.51 | 2.055
293.15 K, x2 = 0.5997 | 790.98 | 1.603
293.15 K, x2 = 0.6987 | 785.57 | 1.275
293.15 K, x2 = 0.7995 | 779.94 | 1.03
293.15 K, x2 = 0.8995 | 774.56 | 0.845
298.15 K, x2 = 0.1004 | 813.81 | 4.649
298.15 K, x2 = 0.1991 | 808.71 | 3.773
298.15 K, x2 = 0.3134 | 802.7 | 2.924
298.15 K, x2 = 0.399 | 798.1 | 2.325
298.15 K, x2 = 0.4994 | 792.62 | 1.83
298.15 K, x2 = 0.5997 | 787 | 1.448
298.15 K, x2 = 0.6987 | 781.49 | 1.165
298.15 K, x2 = 0.7995 | 775.77 | 0.951
298.15 K, x2 = 0.8995 | 770.3 | 0.79
303.15 K, x2 = 0.1004 | 810.21 | 4.037
303.15 K, x2 = 0.1991 | 805.04 | 3.261
303.15 K, x2 = 0.3134 | 798.92 | 2.548
303.15 K, x2 = 0.399 | 794.25 | 2.055
303.15 K, x2 = 0.4994 | 788.68 | 1.64
303.15 K, x2 = 0.5997 | 782.98 | 1.314
303.15 K, x2 = 0.6987 | 777.38 | 1.068
303.15 K, x2 = 0.7995 | 771.56 | 0.879
303.15 K, x2 = 0.8995 | 766 | 0.736
308.15 K, x2 = 0.1004 | 806.59 | 3.484
308.15 K, x2 = 0.1991 | 801.33 | 2.838
308.15 K, x2 = 0.3134 | 795.12 | 2.235
308.15 K, x2 = 0.399 | 790.37 | 1.827
308.15 K, x2 = 0.4994 | 784.72 | 1.476
308.15 K, x2 = 0.5997 | 778.93 | 1.197
308.15 K, x2 = 0.6987 | 773.24 | 0.983
308.15 K, x2 = 0.7995 | 767.32 | 0.816
308.15 K, x2 = 0.8995 | 761.67 | 0.702
313.15 K, x2 = 0.1004 | 802.94 | 3.027
313.15 K, x2 = 0.1991 | 797.6 | 2.485
313.15 K, x2 = 0.3134 | 791.3 | 1.932
313.15 K, x2 = 0.399 | 786.47 | 1.633
313.15 K, x2 = 0.4994 | 780.73 | 1.335
313.15 K, x2 = 0.5997 | 774.85 | 1.094
313.15 K, x2 = 0.6987 | 769.07 | 0.907
313.15 K, x2 = 0.7995 | 763.06 | 0.759
313.15 K, x2 = 0.8995 | 757.31 | 0.645
318.15 K, x2 = 0.1004 | 799.26 | 2.643
318.15 K, x2 = 0.1991 | 793.83 | 2.188
318.15 K, x2 = 0.3134 | 787.42 | 1.749
318.15 K, x2 = 0.399 | 782.53 | 1.468
318.15 K, x2 = 0.4994 | 776.7 | 1.213
318.15 K, x2 = 0.5997 | 770.74 | 1.004
318.15 K, x2 = 0.6987 | 764.87 | 0.84
318.15 K, x2 = 0.7995 | 758.76 | 0.708
318.15 K, x2 = 0.8995 | 752.93 | 0.607
323.15 K, x2 = 0.1004 | 795.54 | 2.322
323.15 K, x2 = 0.1991 | 790.03 | 1.937
323.15 K, x2 = 0.3134 | 783.52 | 1.559
323.15 K, x2 = 0.399 | 778.55 | 1.324
323.15 K, x2 = 0.4994 | 772.64 | 1.106
323.15 K, x2 = 0.5997 | 766.59 | 0.924
323.15 K, x2 = 0.6987 | 760.64 | 0.779
323.15 K, x2 = 0.7995 | 754.43 | 0.662
323.15 K, x2 = 0.8995 | 748.52 | 0.572
328.15 K, x2 = 0.1004 | 791.78 | 2.05
328.15 K, x2 = 0.1991 | 786.18 | 1.723
328.15 K, x2 = 0.3134 | 779.58 | 1.396
328.15 K, x2 = 0.399 | 774.54 | 1.2
328.15 K, x2 = 0.4994 | 768.55 | 1.011
328.15 K, x2 = 0.5997 | 762.41 | 0.853
328.15 K, x2 = 0.6987 | 756.36 | 0.725
328.15 K, x2 = 0.7995 | 750.06 | 0.621
328.15 K, x2 = 0.8995 | 744.07 | 0.54
333.15 K, x2 = 0.1004 | 787.98 | 1.82
333.15 K, x2 = 0.1991 | 782.3 | 1.541
333.15 K, x2 = 0.3134 | 775.6 | 1.254
333.15 K, x2 = 0.399 | 770.5 | 1.092
333.15 K, x2 = 0.4994 | 764.42 | 0.928
333.15 K, x2 = 0.5997 | 758.17 | 0.789
333.15 K, x2 = 0.6987 | 752.05 | 0.676
333.15 K, x2 = 0.7995 | 745.66 | 0.584
333.15 K, x2 = 0.8995 | 739.59 | 0.512

CCCCCCCO [heptan-1-ol] + CCCCCCCCCCCC
Settings | mass density [kg/m3] | viscosity [mPa·s]
293.15 K, x2 = 0.0998 | 810.76 | 5.346
293.15 K, x2 = 0.2005 | 800.65 | 4.224
293.15 K, x2 = 0.302 | 791.28 | 3.358
293.15 K, x2 = 0.3991 | 783.4 | 2.778
293.15 K, x2 = 0.4989 | 776.02 | 2.363
293.15 K, x2 = 0.5994 | 769.4 | 2.052
293.15 K, x2 = 0.6975 | 763.54 | 1.835
293.15 K, x2 = 0.7959 | 758.2 | 1.677
293.15 K, x2 = 0.8984 | 753.19 | 1.538
298.15 K, x2 = 0.0998 | 807.24 | 4.555
298.15 K, x2 = 0.2005 | 797.07 | 3.626
298.15 K, x2 = 0.302 | 787.66 | 2.917
298.15 K, x2 = 0.3991 | 779.77 | 2.444
298.15 K, x2 = 0.4989 | 772.37 | 2.098
298.15 K, x2 = 0.5994 | 765.74 | 1.837
298.15 K, x2 = 0.6975 | 759.88 | 1.653
298.15 K, x2 = 0.7959 | 754.54 | 1.516
298.15 K, x2 = 0.8984 | 749.53 | 1.397
303.15 K, x2 = 0.0998 | 803.68 | 3.91
303.15 K, x2 = 0.2005 | 793.46 | 3.144
303.15 K, x2 = 0.302 | 784.02 | 2.559
303.15 K, x2 = 0.3991 | 776.11 | 2.168
303.15 K, x2 = 0.4989 | 768.69 | 1.878
303.15 K, x2 = 0.5994 | 762.06 | 1.655
303.15 K, x2 = 0.6975 | 756.19 | 1.498
303.15 K, x2 = 0.7959 | 750.85 | 1.38
303.15 K, x2 = 0.8984 | 745.85 | 1.276
308.15 K, x2 = 0.0998 | 800.09 | 3.381
308.15 K, x2 = 0.2005 | 789.82 | 2.745
308.15 K, x2 = 0.302 | 780.35 | 2.26
308.15 K, x2 = 0.3991 | 772.42 | 1.935
308.15 K, x2 = 0.4989 | 765 | 1.69
308.15 K, x2 = 0.5994 | 758.35 | 1.5
308.15 K, x2 = 0.6975 | 752.48 | 1.364
308.15 K, x2 = 0.7959 | 747.14 | 1.262
308.15 K, x2 = 0.8984 | 742.15 | 1.172
313.15 K, x2 = 0.0998 | 796.48 | 2.94
313.15 K, x2 = 0.2005 | 786.16 | 2.412
313.15 K, x2 = 0.302 | 776.66 | 2.009
313.15 K, x2 = 0.3991 | 768.72 | 1.736
313.15 K, x2 = 0.4989 | 761.28 | 1.528
313.15 K, x2 = 0.5994 | 754.63 | 1.365
313.15 K, x2 = 0.6975 | 748.76 | 1.247
313.15 K, x2 = 0.7959 | 743.42 | 1.158
313.15 K, x2 = 0.8984 | 738.43 | 1.08
318.15 K, x2 = 0.0998 | 792.81 | 2.573
318.15 K, x2 = 0.2005 | 782.46 | 2.134
318.15 K, x2 = 0.302 | 772.94 | 1.795
318.15 K, x2 = 0.3991 | 764.98 | 1.566
318.15 K, x2 = 0.4989 | 757.54 | 1.388
318.15 K, x2 = 0.5994 | 750.88 | 1.247
318.15 K, x2 = 0.6975 | 745.01 | 1.145
318.15 K, x2 = 0.7959 | 739.67 | 1.066
318.15 K, x2 = 0.8984 | 734.71 | 0.999
323.15 K, x2 = 0.0998 | 789.12 | 2.266
323.15 K, x2 = 0.2005 | 778.74 | 1.896
323.15 K, x2 = 0.302 | 769.19 | 1.612
323.15 K, x2 = 0.3991 | 761.22 | 1.417
323.15 K, x2 = 0.4989 | 753.77 | 1.265
323.15 K, x2 = 0.5994 | 747.11 | 1.143
323.15 K, x2 = 0.6975 | 741.23 | 1.054
323.15 K, x2 = 0.7959 | 735.9 | 0.986
323.15 K, x2 = 0.8984 | 730.96 | 0.928
328.15 K, x2 = 0.0998 | 785.39 | 2.006
328.15 K, x2 = 0.2005 | 774.97 | 1.694
328.15 K, x2 = 0.302 | 765.4 | 1.454
328.15 K, x2 = 0.3991 | 757.43 | 1.288
328.15 K, x2 = 0.4989 | 749.97 | 1.158
328.15 K, x2 = 0.5994 | 743.31 | 1.051
328.15 K, x2 = 0.6975 | 737.44 | 0.974
328.15 K, x2 = 0.7959 | 732.12 | 0.915
328.15 K, x2 = 0.8984 | 727.21 | 0.864
333.15 K, x2 = 0.0998 | 781.62 | 1.785
333.15 K, x2 = 0.2005 | 771.18 | 1.522
333.15 K, x2 = 0.302 | 761.59 | 1.317
333.15 K, x2 = 0.3991 | 753.6 | 1.175
333.15 K, x2 = 0.4989 | 746.14 | 1.063
333.15 K, x2 = 0.5994 | 739.49 | 0.97
333.15 K, x2 = 0.6975 | 733.61 | 0.902
333.15 K, x2 = 0.7959 | 728.31 | 0.851
333.15 K, x2 = 0.8984 | 723.43 | 0.807

Reference: the NIST ThermoML archive (doi:10.1021/acs.jced.6b00688)
